Experimental data: US7199129B2, “Derivatives of morphine-like opioid compounds” (Monash University, priority 2001, dated 2007)
Where “and” joins values, the source holds several entries; their conditions need not be identical. Equal entries are not always repeated.

What was measured:
ICR mice = assay: Radiant heat-induced tail-flick response assay in mice; type: in vivo; conditions: IP; for % Inhibition (prolongation of tail-flick response time): 30 minutes; for Response Time (Seconds) 30 Mins., Average / Response Time (Seconds) 30 Mins.: 30 minutes after administration; for Response Time (Seconds) 30 Mins. / Response Time (Seconds) 0 Time: individual mice; for Response Time (Seconds) 30 Mins.: cut-off 15 seconds; for Response Time (Seconds) 0 Time / Response Time (Seconds) 0 Time, Average: pre-treatment (0 minutes)
Procedure: For the tail-flick assay, groups of four male or female ICR mice weighing 22±2 g were used, and the test compound dissolved in 2% Tween 80/0.9% NaCl was administered intraperitoneally. The compound was administered intraperitoneally at 4, 8, 16 or 32 mg/kg, using 2% Tween 80—0.9% NaCl as the vehicle. Controls received vehicle alone. Morphine-HCl at a dose of 10 mg/kg was used as a positive control. At the pre-treatment point (0 minutes) a focused beam of radiant heat was applied to the middle dorsal surface of the tail to elicit a tail-flick response. […] The time required to elicit a pain response was recorded for each animal at 30 minutes following administration of the test compound. A prolongation of 50% or more ≧50% of the time required to elicit tail-flick response indicated possible analgesic activity.

human δ-opiate receptor = biological target: T1, human δ-opiate receptor (Homo sapiens, UniProt P41143); assay: In vitro opiate receptor radioligand binding assay, δ; conditions: test compound 10 μM
T1 construct: purchased MDS Pharma Services 260110
Procedure: To characterise the target specificity of the compounds, KRS-5-150 and KRS-6-26 were tested at a concentration of 10 μM for their ability to inhibit the binding of a radioligand to human δ-, κ-, or μ-opiate receptors in vitro using commercially available assays (MDS Pharma Services; assay catalogue numbers 260110, 260210 and 260410 respectively).
Percentage inhibition of radioligand binding to human opioid receptors in vitro by test compounds (10 μM)

T1 sequence (P41143 whole entry): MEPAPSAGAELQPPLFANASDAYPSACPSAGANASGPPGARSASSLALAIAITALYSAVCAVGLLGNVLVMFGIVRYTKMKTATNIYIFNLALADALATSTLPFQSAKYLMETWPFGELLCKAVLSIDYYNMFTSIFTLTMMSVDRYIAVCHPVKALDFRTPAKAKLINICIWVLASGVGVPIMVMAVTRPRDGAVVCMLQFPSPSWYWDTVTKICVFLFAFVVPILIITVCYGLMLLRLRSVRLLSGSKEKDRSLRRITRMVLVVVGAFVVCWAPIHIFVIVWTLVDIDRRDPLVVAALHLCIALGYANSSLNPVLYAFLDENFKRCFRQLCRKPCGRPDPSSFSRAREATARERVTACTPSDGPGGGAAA

What does the source list for `Oc1ccc2c3c1O[C@H]1[C@@H](O)C=C[C@H]4[C@@H](C2)N(CCCNC(=Nc2ccccc2)Nc2ccccc2)CC[C@@]341` [KRS-5-150, (5α,6α)-7,8 didehydro-4,5-epoxy-17-(N,N′-bisphenylcarboxamidino-3-aminopropyl)morphinan,3,6-diol]?
% Inhibition (prolongation of tail-flick response time) (ICR mice; 4 mg/kg): 5%; Response Time (Seconds) 30 Mins., Average (ICR mice; 4 mg/kg): 6.6 s; Response Time (Seconds) 30 Mins. (ICR mice; 4 mg/kg, 4 mg/kg): 6.2 Seconds (2×) and 6.4 Seconds and 7.4 Seconds; Response Time (Seconds) 0 Time (ICR mice; 4 mg/kg): 6.3 Seconds (2×) and 6.4 Seconds and 6.2 Seconds; Response Time (Seconds) 0 Time, Average (ICR mice; 4 mg/kg): 6.3 s; % Inhibition (prolongation of tail-flick response time) (ICR mice; 8 mg/kg): 3%; Response Time (Seconds) 30 Mins., Average (ICR mice; 8 mg/kg): 6.6 s; Response Time (Seconds) 30 Mins. (ICR mice; 8 mg/kg, 8 mg/kg): 6.4 s and 6.8 s and 6.5 s and 6.7 s; Response Time (Seconds) 0 Time (ICR mice; 8 mg/kg): 6.3 Seconds (2×) and 6.5 Seconds and 6.4 Seconds; Response Time (Seconds) 0 Time, Average (ICR mice; 8 mg/kg): 6.4 s; % Inhibition (prolongation of tail-flick response time) (ICR mice; 16 mg/kg): 2%; Response Time (Seconds) 30 Mins., Average (ICR mice; 16 mg/kg): 6.4 s; Response Time (Seconds) 30 Mins. (ICR mice; 16 mg/kg, 16 mg/kg): 6.3 s and 6.5 s and 6.2 s and 6.4 s; Response Time (Seconds) 0 Time (ICR mice; 16 mg/kg): 6.2 Seconds (2×) and 6.3 Seconds and 6.4 Seconds; Response Time (Seconds) 0 Time, Average (ICR mice; 16 mg/kg): 6.3 s; % Inhibition (prolongation of tail-flick response time) (ICR mice; 32 mg/kg): 19%; Response Time (Seconds) 30 Mins., Average (ICR mice; 32 mg/kg): 7.6 s; Response Time (Seconds) 30 Mins. (ICR mice; 32 mg/kg, 32 mg/kg): 6.7 s and 8.7 s and 6.5 s and 8.4 s; Response Time (Seconds) 0 Time (ICR mice; 32 mg/kg): 6.5 Seconds and 6.3 Seconds (2×) and 6.4 Seconds; Response Time (Seconds) 0 Time, Average (ICR mice; 32 mg/kg): 6.4 s; analgesic activity in tail-flick assay (≧50% prolongation) (ICR mice; 4, 8, 16 and 32 mg/kg): none of the four doses used showed significant activity; Percentage inhibition of radioligand binding, δ-opiate receptor (human δ-opiate receptor): 79%
